For one series, the target named is Carbonic anhydrase 1 (Homo sapiens, UniProt P00915). The series is described as follows: Inhibition of human recombinant carbonic anhydrase 1 expressed in Escherichia coli preincubated for 15 mins by stopped flow CO2 hydration method.
The next series concerns the target Carbonic anhydrase 2 (Homo sapiens, UniProt P00918). The series is described as follows: Inhibition of human recombinant carbonic anhydrase 2 expressed in Escherichia coli preincubated for 15 mins by stopped flow CO2 hydration method.
For a further series, the target named is Carbonic anhydrase 9 (Homo sapiens, UniProt Q16790).
The target in another series is Carbonic anhydrase 12 (Homo sapiens, UniProt O43570). Kind of series: Inhibition of human recombinant carbonic anhydrase 12 expressed in Escherichia coli preincubated for 15 mins by stopped flow CO2 hydration method.
Chain of Carbonic anhydrase 12 (O43570 whole entry): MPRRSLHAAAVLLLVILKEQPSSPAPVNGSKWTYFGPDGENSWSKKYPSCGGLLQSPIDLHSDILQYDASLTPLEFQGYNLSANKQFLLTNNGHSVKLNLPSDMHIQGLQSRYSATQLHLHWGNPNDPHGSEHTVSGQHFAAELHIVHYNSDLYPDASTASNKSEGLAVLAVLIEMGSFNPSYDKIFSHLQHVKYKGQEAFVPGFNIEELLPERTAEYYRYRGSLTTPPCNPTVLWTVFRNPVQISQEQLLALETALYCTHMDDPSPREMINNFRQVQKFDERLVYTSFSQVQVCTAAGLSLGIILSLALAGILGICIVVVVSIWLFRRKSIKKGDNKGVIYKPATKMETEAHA
Series [1] in a line: Dissociation constant, acidic pKa of the compound by spectrophotometric analysis.

The values that follow come from ChEMBL document CHEMBL3593209, “5-Aryl-1H-pyrazole-3-carboxylic acids as selective inhibitors of human carbonic anhydrases IX and XII” (Bioorg Med Chem, 2015).

Structures are written as SMILES.

Chain of Carbonic anhydrase 1 (P00915 whole entry): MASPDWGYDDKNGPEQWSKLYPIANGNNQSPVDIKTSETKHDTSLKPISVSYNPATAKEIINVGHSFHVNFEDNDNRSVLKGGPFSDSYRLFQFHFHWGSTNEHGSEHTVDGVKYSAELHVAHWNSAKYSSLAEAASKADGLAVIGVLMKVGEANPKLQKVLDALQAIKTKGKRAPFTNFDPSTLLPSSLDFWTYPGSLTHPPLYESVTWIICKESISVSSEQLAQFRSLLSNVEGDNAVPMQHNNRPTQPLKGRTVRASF
Description for Carbonic anhydrase 9: Inhibition of human recombinant carbonic anhydrase 9 expressed in Escherichia coli preincubated for 15 mins by stopped flow CO2 hydration method

In the case of `O=C(O)c1cc(-c2ccc(Cl)cc2)n[nH]1`, the Ki at Carbonic anhydrase 1 is over 50 µM; at Carbonic anhydrase 2, over 50 µM; on Carbonic anhydrase 9, over 50 µM; on Carbonic anhydrase 12, 50 µM.

In the case of `CCc1ccc(-c2cc(C(=O)O)[nH]n2)cc1`, the Ki on Carbonic anhydrase 1 is over 50 µM; on Carbonic anhydrase 2 it was over 50 µM; on Carbonic anhydrase 9, 42 µM; on Carbonic anhydrase 12 it was 4.5 µM.

Regarding `O=C(O)c1cc(-c2ccc(O)cc2)n[nH]1`, the Ki was over 50 µM at Carbonic anhydrase 1, over 50 µM on Carbonic anhydrase 2, over 50 µM at Carbonic anhydrase 9 and 41 µM at Carbonic anhydrase 12.

With `COc1ccc(-c2cc(C(=O)O)n[nH]2)cc1`, the inhibition constant Ki at Carbonic anhydrase 1 is over 50 µM; on Carbonic anhydrase 2, over 50 µM; on Carbonic anhydrase 9, 49.5 µM; at Carbonic anhydrase 12 it was over 50 µM. In addition, the pKa in series [1] amounted to 3.31.

For `Cc1ccc(-c2cc(C(=O)O)[nH]n2)c(C)c1`, the Ki on Carbonic anhydrase 1 is over 50 µM; on Carbonic anhydrase 2, over 50 µM; on Carbonic anhydrase 9, 45 µM; at Carbonic anhydrase 12, over 50 µM.

`Cc1ccc(-c2cc(C(=O)O)[nH]n2)cc1C`: the inhibitory constant (Ki) on Carbonic anhydrase 1 was over 50 µM; at Carbonic anhydrase 2, over 50 µM; on Carbonic anhydrase 9, 48 µM; on Carbonic anhydrase 12, over 50 µM.

For `O=C(O)c1cc(-c2ccc(F)cc2)n[nH]1`, the inhibition constant (Ki) on Carbonic anhydrase 1 was over 50 µM; at Carbonic anhydrase 2, over 50 µM; on Carbonic anhydrase 9 it was over 50 µM; on Carbonic anhydrase 12, 38.5 µM.

Take `CC(C)c1ccc(-c2cc(C(=O)O)[nH]n2)cc1`: the Ki at Carbonic anhydrase 1, on Carbonic anhydrase 2, on Carbonic anhydrase 9 and on Carbonic anhydrase 12 was over 50 µM each time.

Regarding `Cc1ccc(-c2cc(C(=O)O)[nH]n2)cc1`, the Ki on Carbonic anhydrase 1, on Carbonic anhydrase 2, on Carbonic anhydrase 9 and on Carbonic anhydrase 12 was over 50 µM in each case.

In the case of `O=C(O)c1cc(-c2ccc3ccccc3c2)[nH]n1`, the inhibition constant Ki at Carbonic anhydrase 1, on Carbonic anhydrase 2 and on Carbonic anhydrase 9 was over 50 µM in each case.

`CCCCc1ccc(-c2cc(C(=O)O)n[nH]2)cc1`: the Ki at Carbonic anhydrase 1 was over 50 µM; on Carbonic anhydrase 2, over 50 µM; at Carbonic anhydrase 9, 39 µM.

As for `CC(C)(C)c1ccc(-c2cc(C(=O)O)n[nH]2)cc1`, the figures for the inhibitory constant (Ki) at Carbonic anhydrase 1, on Carbonic anhydrase 2 and on Carbonic anhydrase 9 were over 50 µM, over 50 µM and 5 µM, respectively.

In the case of `Cc1cc(C)c(-c2cc(C(=O)O)n[nH]2)cc1C`, the inhibition constant (Ki) is over 50 µM on Carbonic anhydrase 1, over 50 µM at Carbonic anhydrase 2, 23.5 µM at Carbonic anhydrase 9 and over 50 µM at Carbonic anhydrase 12.

For `Cc1cc(C)c(C)c(-c2cc(C(=O)O)n[nH]2)c1C`, the inhibition constant Ki is over 50 µM on Carbonic anhydrase 1, over 50 µM on Carbonic anhydrase 2, 5 µM at Carbonic anhydrase 9 and over 50 µM at Carbonic anhydrase 12.

Consider `CCc1cc(CC)c(-c2cc(C(=O)O)n[nH]2)c(CC)c1`, for which the Ki at Carbonic anhydrase 1, on Carbonic anhydrase 2, at Carbonic anhydrase 9 and on Carbonic anhydrase 12 was over 50 µM each time.

`CC(C)c1ccc(-c2cc(C(=O)O)n[nH]2)c(C(C)C)c1`: the Ki at Carbonic anhydrase 1 is over 50 µM; at Carbonic anhydrase 2, over 50 µM; on Carbonic anhydrase 9, 16 µM; at Carbonic anhydrase 12, over 50 µM.

With `CC(C)c1cc(C(C)C)c(-c2cc(C(=O)O)n[nH]2)c(C(C)C)c1`, the Ki at Carbonic anhydrase 1 was over 50 µM; on Carbonic anhydrase 2 it was over 50 µM; at Carbonic anhydrase 9 it was 39 µM.

As for `O=C(O)c1cc(-c2ccc3c(c2)CCCC3)[nH]n1`, the Ki at Carbonic anhydrase 1, on Carbonic anhydrase 2 and on Carbonic anhydrase 9 was over 50 µM in each case.

On to `O=C(O)c1cc(-c2ccc(-c3ccccc3)cc2)[nH]n1`, for which the Ki on Carbonic anhydrase 1, at Carbonic anhydrase 2 and on Carbonic anhydrase 9 was over 50 µM each time.

Regarding `O=C(O)c1cc(-c2ccc(N3CCCC3)cc2)[nH]n1`, the inhibition constant Ki on Carbonic anhydrase 1, on Carbonic anhydrase 2 and at Carbonic anhydrase 9 was over 50 µM each time.

Regarding `O=C(O)c1cc(-c2cccc(Br)c2)[nH]n1`, the Ki on Carbonic anhydrase 1 is over 50 µM; at Carbonic anhydrase 2, over 50 µM; at Carbonic anhydrase 9, 23.5 µM; at Carbonic anhydrase 12, over 50 µM.

As to `COc1ccccc1-c1cc(C(=O)O)n[nH]1`, the inhibition constant Ki at Carbonic anhydrase 1, at Carbonic anhydrase 2 and at Carbonic anhydrase 9 was over 50 µM in each case.

Take `COc1cc(C)c(-c2cc(C(=O)O)n[nH]2)cc1C`: the Ki on Carbonic anhydrase 1 was over 50 µM; on Carbonic anhydrase 2, over 50 µM; at Carbonic anhydrase 9, 22.5 µM; on Carbonic anhydrase 12, over 50 µM.

For orientation: Ki means a measure of affinity in units of concentration, obtained from inhibition or displacement. One may read the pKa as the pH at which an ionisable group is half protonated.
